In one series the target is T1, dopamine-β-hydroxylase (Bos taurus, UniProt P15101).
T1 construct: from tissue; host or cells: bovine adrenal (gland) preparations
T1 sequence (P15101 1-610): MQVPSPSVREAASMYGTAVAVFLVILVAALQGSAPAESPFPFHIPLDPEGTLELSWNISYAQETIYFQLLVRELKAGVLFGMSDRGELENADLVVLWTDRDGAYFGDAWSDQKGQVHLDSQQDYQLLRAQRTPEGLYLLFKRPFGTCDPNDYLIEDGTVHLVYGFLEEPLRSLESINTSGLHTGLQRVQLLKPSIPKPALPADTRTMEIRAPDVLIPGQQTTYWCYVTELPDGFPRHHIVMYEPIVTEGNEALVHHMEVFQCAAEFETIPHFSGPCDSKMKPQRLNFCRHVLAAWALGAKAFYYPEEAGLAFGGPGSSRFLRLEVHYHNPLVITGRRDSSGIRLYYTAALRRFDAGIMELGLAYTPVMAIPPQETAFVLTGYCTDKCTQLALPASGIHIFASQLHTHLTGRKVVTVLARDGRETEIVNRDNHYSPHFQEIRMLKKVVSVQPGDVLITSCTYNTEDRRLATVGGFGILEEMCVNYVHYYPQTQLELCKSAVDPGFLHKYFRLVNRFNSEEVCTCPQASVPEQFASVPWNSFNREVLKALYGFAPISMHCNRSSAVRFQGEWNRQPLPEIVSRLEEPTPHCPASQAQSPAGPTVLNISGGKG
In words: Dopamine-β-hydroxylase inhibiting activity (DBH) on bovine adrenal (gland) preparations. The series is classed as biochemical. Particulars: read-out: Enzyme inhibiting activity, DBH; for inhibition at 100 µM: 10^-4 mole/liter; for inhibition at 10 µM: 10^-5 mole/liter. As to the method: Dopamine-β-hydroxylase inhibiting activity (DBH inhibiting activity) of the compounds according to the invention was tested on bovine adrenal (gland) preparations by a modified version of Nagatsu's method [B.B. Acta, 139 319 (1967)].
(§1) Inhibiting effect of several compounds encompassed by the formula I in comparison with some known compounds is listed in the following Table I.

Series [1] has as its system spontaneous hypertensive rats (Wistar-Okamoto rats). In words: Blood pressure lowering activity, systolic blood pressure of waking spontaneous hypertensive rats, oral. The series is classed as in vivo, rat. The conditions noted are these: for change in vivo at 50 mg/kg / change in vivo at 20 mg/kg / change in vivo at 2.5 mg/kg: Rattus norvegicus, oral, read-out: Reduction in blood pressure; for significant blood pressure lowering activity: ≥-15%. The procedure: Blood pressure lowering activity of the new compounds according to the invention was tested on spontaneous hypertensive rats (Wistar-Okamoto rats) following the method described in Arzn. Forsch., 6, 222 (1956). Systolic blood pressure of waking animals was measured in arteria caudalis 4, 24, 48 and 72 hours after the oral administration of the test compounds.

A short description of series [2]: Acute toxicity (LD50) on mice. The conditions noted are these: mouse, in vivo, po.
The target in another series is T2, tyrosine-hydroxylase (Rattus norvegicus, UniProt P04177).
T2 construct: on rat adrenal homogenate; from tissue; host or cells: rat adrenal homogenate
T2 sequence (P04177 whole entry): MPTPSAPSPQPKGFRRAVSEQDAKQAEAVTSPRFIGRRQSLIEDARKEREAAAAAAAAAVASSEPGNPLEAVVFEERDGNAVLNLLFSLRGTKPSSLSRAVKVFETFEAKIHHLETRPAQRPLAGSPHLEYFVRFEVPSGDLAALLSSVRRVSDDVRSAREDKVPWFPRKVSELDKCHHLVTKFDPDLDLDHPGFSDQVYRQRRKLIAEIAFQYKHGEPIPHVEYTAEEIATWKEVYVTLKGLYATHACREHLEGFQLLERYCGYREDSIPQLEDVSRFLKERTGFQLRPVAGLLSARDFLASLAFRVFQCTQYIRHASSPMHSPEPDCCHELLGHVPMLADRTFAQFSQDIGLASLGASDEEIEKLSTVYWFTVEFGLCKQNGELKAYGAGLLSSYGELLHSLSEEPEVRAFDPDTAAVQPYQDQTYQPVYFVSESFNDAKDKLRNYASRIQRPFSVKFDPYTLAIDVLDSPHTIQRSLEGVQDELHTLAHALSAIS
In words: In vitro tyrosine-hydroxylase inhibiting activity (TH) on rat adrenal homogenate. The series is classed as biochemical. The conditions noted are these: read-out: Enzyme inhibiting activity, TH; for inhibition at 100 µM: 10^-4 mole/liter; for inhibition at 10 µM: 10^-5 mole/liter. The procedure:
In vitro tyrosine-hydroxylase inhibiting activity (TH inhibiting activity) of the new compounds according to the invention was tested by the method of Nagatsu [Anal. Biochem., 9, 122 (1964)] on rat adrenal homogenate. Radioactive tyrosine was purified by the method elaborated by Ikeda [J. Biol. Chem., 241, 4452 (1966)]. TH activity of the rat adrenal homogenate amounted to […] nmoles/mg protein/60 min.
as §1

SMILES strings stand for the structures. Like-named read-outs stand apart in the source and are kept apart here.

Consider `CCOC(=O)CCC(C)=NNc1ccc(Cl)nn1` [Example 62, 4-(Ethoxycarbonyl)-2-butylidene-(3-chloro-6-pyridazinl)hydrazone], for which the inhibition at 100 µM on dopamine-β-hydroxylase is 60%. The change in vivo at 50 mg/kg in series [1] (4 hours) is -29%; in series [1] (24 hours) it was -26%. The “significant blood pressure lowering activity” value in series [1] is recorded as ≥ -15%. Besides, in series [2], the LD50 was 200 mg/kg.
As for `CC(CCC(=O)O)=NNc1ccc(Cl)nn1` [Example 38, 4-Carboxy-2-butylidene-3-chloro-6-pyridazinylhydrazone], the change in vivo at 50 mg/kg was -34% in series [1] (4 hours) and -27% in series [1] (24 hours). The “significant blood pressure lowering activity” value in series [1] was ≥ -15%. The same compound gave an LD50 in series [2] of 200 mg/kg.
As to `CC(CCCC(=O)O)=NNc1ccc(Cl)nn1` [Example 50, 5-Carboxy-2-pentylidene-3-chloro-6-pyridazinylhydrazone], on dopamine-β-hydroxylase, the inhibition at 100 µM was 73%. On dopamine-β-hydroxylase, the inhibition at 10 µM was 0%. Moreover, the change in vivo at 20 mg/kg in series [1] (4 hours) was -28%; in series [1] (24 hours) it was -30%. In addition, the “significant blood pressure lowering activity” value in series [1] is given as ≥ -15%. In series [2], this compound displayed an LD50 of 200 mg/kg.
Take `CCOC(=O)CC(=NNc1ccc(Cl)nn1)c1ccccc1` [Example 34, 1-(Ethoxycarbonyl)-2-phenyl-2-ethylidene-3-chloro-6-pyridazinylhydrazone]: at dopamine-β-hydroxylase, the inhibition at 100 µM was determined as 100% and the inhibition at 10 µM came to 40%.
For the compound `c1cc(N2CCOCC2)nnc1NN=C1CCCCC1` [Example 10, Cyclohexylidene-3-morpholino-6-pyridazinylhydrazone], the change in vivo at 2.5 mg/kg in series [1] (4 hours) was -41%; in series [1] (24 hours), -26%. Besides, the “significant blood pressure lowering activity” value in series [1] is recorded as ≥ -15%. The 50% lethal dose (LD50) in series [2] was < 200 mg/kg.
As to `CC(CC(=O)OC(C)(C)C)=NNc1ccc(C(N)=O)nn1` [Example 56, 3-(tert.-Butoxycarbonyl)-2-propylidene-(3-carbamoyl-6-pyridazinyl) hydrazine], the change in vivo at 20 mg/kg in series [1] (4 hours) is -20%; in series [1] (24 hours), 0%. Further, the “significant blood pressure lowering activity” value in series [1] is on record as ≥ -15%. In addition, the 50% lethal dose (LD50) in series [2] was > 200 mg/kg.
Regarding `CCOC(=O)CCCC(C)=NNc1ccc(Cl)nn1` [Example 26], the change in vivo at 50 mg/kg in series [1] (4 hours) was -38%; in series [1] (24 hours), -29%. The “significant blood pressure lowering activity” value in series [1] was ≥ -15%. Also, in series [2], the 50% lethal dose (LD50) was 200 mg/kg.
Regarding `c1cnnc(NN=C2CCCCC2)c1` [Example 12, Cyclohexylidene-3-pyridazinylhydrazone], on tyrosine-hydroxylase, the inhibition at 100 µM worked out at 100% and the inhibition at 10 µM was found to be 85%. Moreover, on dopamine-β-hydroxylase, the inhibition at 100 µM is 84% and the inhibition at 10 µM amounted to 10%.
Turning to `CC(CCCC(=O)O)=NNc1ccc(N2CCOCC2)nn1` [Example 57, 5-Carboxy-2-pentylidene-3-morpholino-6-pyridazinylhydrazone], the change in vivo at 2.5 mg/kg in series [1] (4 hours) is -28%; in series [1] (24 hours), -16%. Also, the “significant blood pressure lowering activity” value in series [1] was ≥ -15%. For the same compound, the LD50 in series [2] stood at 200 mg/kg.
For `CC(CCC(=O)O)=NNc1ccc(N2CCOCC2)nn1` [Example 48, 4-Carboxy-2-butylidene-3-morpholino-6-pyridazinylhydrazone], the change in vivo at 2.5 mg/kg in series [1] (4 hours) was -33%; in series [1] (24 hours), -8%. Further, the “significant blood pressure lowering activity” value in series [1] is given as ≥ -15%. Further, the LD50 in series [2] worked out at 200 mg/kg.
In the case of `CCCCc1ccc(C(=O)O)nc1` [Fusaric acid, reference compound], at tyrosine-hydroxylase, the inhibition at 100 µM is 0% and the inhibition at 10 µM was 0%. Moreover, on dopamine-β-hydroxylase, the inhibition at 100 µM was 100% and the inhibition at 10 µM stood at 100%.
`CCOC(=O)CC(C)=NNc1cccnn1` [Example 22, 3-(Ethoxycarbonyl)-2-propylidene-(3-pyridazinyl)hydrazone]: at tyrosine-hydroxylase, the inhibition at 100 µM worked out at 100% and the inhibition at 10 µM amounted to 50%. Besides, on dopamine-β-hydroxylase, the inhibition at 100 µM was 100% and the inhibition at 10 µM stood at 56%.
Take `CCOC(=O)CC(=NNc1ccc(Cl)nn1)c1cccnc1` [Example 37, 1-(Ethoxycarbonyl)-2-(3-pyridyl)-2-ethylidene-3-chloro-6-pyridazinylhydrazone]: at dopamine-β-hydroxylase, the inhibition at 100 µM was determined as 100% and the inhibition at 10 µM came to 41%.
Take `CC(N)(Cc1ccc(O)cc1)C(=O)O` (racemic) [D,L-α-methyl-4-hydroxy-phenyl-alanine, reference compound]: the inhibition at 100 µM stood at 100% on tyrosine-hydroxylase and 0% on dopamine-β-hydroxylase. Further, the inhibition at 10 µM at tyrosine-hydroxylase was found to be 60%; on dopamine-β-hydroxylase it was 0%.
`CC1CCCCC1=NNc1ccc(Cl)nn1` (centres unmarked) [Example 15, 2-Methyl-1-cyclohexylidene-3-chloro-6-pyridazinylhydrazone]: on tyrosine-hydroxylase, the inhibition at 100 µM was 100% and the inhibition at 10 µM was 50%. Also, at dopamine-β-hydroxylase, the inhibition at 100 µM was 88% and the inhibition at 10 µM stood at 32%.
On to `CC12CCC(CC1=NNc1cccnn1)C2(C)C` (centres unmarked) [Example 3, 1,7,7-Trimethy-2-bicyclo-[2,2,1]heptylidene-3-pyridazinylhydrazone], for which, at tyrosine-hydroxylase, the inhibition at 100 µM came to 100% and the inhibition at 10 µM is 75%. In addition, on dopamine-β-hydroxylase, the inhibition at 100 µM was 80% and the inhibition at 10 µM was determined as 0%.
Take `CC(CCC(=O)OC(C)(C)C)=NNc1ccc(Cl)nn1` [Example 43, 4-(tert.-Butoxycarbonyl)-2-butylidene-3-chloro-6-pyridazinylhydrazone]: the change in vivo at 50 mg/kg is -32% in series [1] (4 hours) and -18% in series [1] (24 hours). Also, in series [1], the “significant blood pressure lowering activity” value is recorded as ≥ -15%. The compound also returned a median lethal dose (LD50) in series [2] of 200 mg/kg.
For the compound `O=C(O)C1CCCCC1=NNc1ccc(Cl)nn1` (centres unmarked) [Example 18, 2-Carboxy-1-cyclohexylidene-3-chloro-6-pyridazinylhydrazone], on tyrosine-hydroxylase, the inhibition at 100 µM was 100% and the inhibition at 10 µM was found to be 50%. At dopamine-β-hydroxylase, the inhibition at 100 µM came to 88% and the inhibition at 10 µM is 32%.
For `CC(CC(=O)OC(C)(C)C)=NNc1ccc(C)nn1` [Example 53, 3-(tert.-Butoxycarbonyl)-2-propylidene-(3-methyl-6-pyridazinyl) hydrazone], the change in vivo at 50 mg/kg in series [1] (4 hours) was -32%; in series [1] (24 hours), -27%. The “significant blood pressure lowering activity” value in series [1] is recorded as ≥ -15%. Besides, the 50% lethal dose (LD50) in series [2] was found to be 200 mg/kg.
Take `CC(=NNc1cccnn1)c1ccccc1` [Example 13, 1-Phenyl-1-ethylidene-3-pyridazinylhydrazone]: on tyrosine-hydroxylase, the inhibition at 100 µM is 95% and the inhibition at 10 µM was 40%. Also, at dopamine-β-hydroxylase, the inhibition at 100 µM came to 90% and the inhibition at 10 µM came out at 10%.
`CCOC(=O)CC(CC)=NNc1ccc(Cl)nn1` [Example 27, 1-(Ethoxycarbonyl)-2-butylidene-3-chloro-6-pyridazinylhydrazone]: the “significant blood pressure lowering activity” value in series [1] was ≥ -15%.
On to `CCOC(=O)C(C)C(C)=NNc1ccc(Cl)nn1` (centres unmarked) [Example 25, 3-(Ethoxycarbonyl)-2-butylidene-3-chloro-6-pyridazinylhydrazone], for which the change in vivo at 50 mg/kg in series [1] (4 hours) is -33%; in series [1] (24 hours) it was -17%. Besides, the “significant blood pressure lowering activity” value in series [1] is given as ≥ -15%. The compound further gave a 50% lethal dose (LD50) in series [2] of 200 mg/kg.
For the compound `COC(=O)CC(C)=NNc1ccc(Cl)nn1` [Example 24, 3-(Methoxycarbonyl)-2-propylidene-3-chloro-6-pyridazinylhydrazone], at dopamine-β-hydroxylase, the inhibition at 100 µM came to 100% and the inhibition at 10 µM was 50%.

As usually defined, the LD50 is the dose at which mortality reaches 50%.
